Assays:
CYP2A6 = molecular target: T1, CYP2A6 (Homo sapiens, UniProt P11509); test: CYP2A6 coumarin 7-hydroxylation inhibition, cocktail assay in pooled human liver microsomes; format: in vitro ADME; settings: 2.5 μM coumarin, no inhibition at 200 μM of corydaline; for IC50 no preincubation, CYP2A6 coumarin 7-hydroxylation: pooled human liver microsomes (H161)
T1 construct: using pooled human liver microsomes; tissue BD Gentest Co. H161; host or cells: pooled human liver microsomes
T1 sequence (P11509 1-494): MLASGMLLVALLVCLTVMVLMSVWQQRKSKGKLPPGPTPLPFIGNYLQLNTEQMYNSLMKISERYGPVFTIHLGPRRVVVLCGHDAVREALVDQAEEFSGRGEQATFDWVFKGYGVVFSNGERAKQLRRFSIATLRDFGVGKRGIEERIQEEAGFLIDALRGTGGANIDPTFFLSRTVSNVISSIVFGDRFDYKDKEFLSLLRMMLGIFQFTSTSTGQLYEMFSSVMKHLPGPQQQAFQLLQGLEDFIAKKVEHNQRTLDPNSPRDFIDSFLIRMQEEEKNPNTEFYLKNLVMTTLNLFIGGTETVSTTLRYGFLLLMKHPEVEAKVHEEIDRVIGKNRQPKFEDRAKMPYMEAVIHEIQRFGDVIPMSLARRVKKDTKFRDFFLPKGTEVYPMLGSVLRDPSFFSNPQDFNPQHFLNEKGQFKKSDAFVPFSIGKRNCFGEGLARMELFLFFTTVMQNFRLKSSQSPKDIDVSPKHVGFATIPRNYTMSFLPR
Procedure: (§1) Phenacetin O-deethylase, coumarin 7-hydroxylase, amodiaquine N-deethylase, diclofenac 4-hydroxylase, S-mephenytoin 4-hydroxylase, bufuralol hydroxylase, and midazolam 1’-hydroxylase activities were determined as probe activities for CYP1A2, CYP2A6, CYP2C8, CYP2C9, CYP2C19, CYP2D6, and CYP3A4, respectively, using cocktail incubation and liquid chromatography-tandem mass spectrometry (LC/MS/MS). The incubation mixtures were prepared in a total volume of 200 μL, as follows: pooled human liver microsomes (0.25 mg/mL), 1.3 mM NADPH, 3.3 mM MgCl2, 50 mM potassium phosphate buffer (pH 7.4), and a cocktail of probe substrates and various concentrations of corydaline (1−200 μM). The substrates were used at concentrations approximately equal to their respective Km values: 50 μM phenacetin, 2.5 μM coumarin, 2.5 μM amodiaquine, 10 μM diclofenac, 100 μM S-mephenytoin, 5 μM bufuralol, and 2.5 μM midazolam. After a 3-min pre-incubation period at 37 °C, the reactions were initiated by addition of an NADP generating system and incubated for 20 min at 37 °C in a shaking water bath. After incubation, the reaction was stopped by placement of the tubes on ice and addition of 100 μL of ice-cold methanol containing internal standards (^13C2,^15N-acetaminophen for acetaminophen and N-desethylamodiaquine, d5-7-hydroxycoumarin for 7-hydroxycoumarin, ^13C6-4-hydroxydiclofenac for 4-hydroxydiclofenac, d3-4-hydroxy-mephenytoin for 4-hydroxymephenytoin and hydroxymidazolam, d9-1-hydroxybufuralol for 1-hydroxybufuralol). The incubation mixtures were then centrifuged at 13,000 × g for 5 min. All incubations were performed in triplicate and the mean values were used. […] The reaction was started by addition of a cocktail of CYP probe substrates.
(§2) All 7 metabolites produced from the cocktail of CYP isoform-specific substrates were simultaneously determined by LC/MS/MS [25]. […] Quantification was performed by selected reaction monitoring (SRM) of the [M+H]^+ ion and the related product ion for each metabolite. […]

CYP2C8 = molecular target: T2, CYP2C8 (Homo sapiens, UniProt P10632); test: CYP2C8 amodiaquine N-deethylation inhibition, cocktail assay in pooled human liver microsomes; format: in vitro ADME; settings: 2.5 μM amodiaquine, no inhibition at 200 μM of corydaline; for IC50 no preincubation, CYP2C8 amodiaquine N-deethylation: pooled human liver microsomes (H161)
T2 construct: using pooled human liver microsomes; tissue BD Gentest Co. H161; host or cells: pooled human liver microsomes
T2 sequence (P10632 1-490): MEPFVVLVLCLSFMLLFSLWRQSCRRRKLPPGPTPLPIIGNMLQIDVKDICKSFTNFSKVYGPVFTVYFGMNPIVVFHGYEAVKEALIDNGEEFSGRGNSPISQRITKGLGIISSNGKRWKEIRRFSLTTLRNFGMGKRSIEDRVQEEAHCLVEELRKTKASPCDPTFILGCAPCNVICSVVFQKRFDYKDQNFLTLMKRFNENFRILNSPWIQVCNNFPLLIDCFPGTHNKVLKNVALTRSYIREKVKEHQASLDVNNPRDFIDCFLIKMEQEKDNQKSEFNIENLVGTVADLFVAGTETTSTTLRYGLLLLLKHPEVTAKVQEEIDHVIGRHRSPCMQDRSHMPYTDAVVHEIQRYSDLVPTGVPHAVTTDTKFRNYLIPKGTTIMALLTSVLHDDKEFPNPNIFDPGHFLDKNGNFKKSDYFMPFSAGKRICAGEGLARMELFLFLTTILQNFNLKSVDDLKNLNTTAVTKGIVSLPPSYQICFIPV
Procedure: as §1, §2

[1] = pre-incubated 30 min with NADPH

COc1cc2c(cc1OC)C1C(C)c3ccc(OC)c(OC)c3CN1CC2 (stereo not drawn) [Corydaline, 2,3,9,10-tetramethoxy-13-methyl-5,8,13,13a-tetrahydro-6H-isoquino[3,2-a]isoquinoline]
IC50 no preincubation, CYP2A6 coumarin 7-hydroxylation (CYP2A6): negligible inhibition
IC50 no preincubation, CYP2A6 coumarin 7-hydroxylation (CYP2A6; listed as corydaline): No inhibition **
IC50 with preincubation, CYP2A6 coumarin 7-hydroxylation (CYP2A6; [1]): No inhibition **
IC50 no preincubation, CYP2C8 amodiaquine N-deethylation (CYP2C8): negligible inhibition
IC50 no preincubation, CYP2C8 amodiaquine N-deethylation (CYP2C8; listed as corydaline): No inhibition **
IC50 with preincubation, CYP2C8 amodiaquine N-deethylation (CYP2C8; [1]): No inhibition **

Reference: PMC6264278, “Corydaline Inhibits Multiple Cytochrome P450 and UDP-Glucuronosyltransferase Enzyme Activities in Human Liver Microsomes” (Molecules, 2011)
